Source: ChEMBL document CHEMBL4145688, “Potent and Orally Bioavailable Inverse Agonists of RORγt Resulting from Structure-Based Design” (J Med Chem, 2018)
In brackets after ≈: the same amount, converted by molar mass.

Key:
Homo sapiens = assay: Reduction in psoriasis-severity index in psoriasis patient dosed orally during phase 2a study; format: functional; parameters: scale not given: the % may be the effect or the level left
[1] = target: T1, Nuclear receptor ROR-alpha (Homo sapiens, UniProt P35398); assay: Inverse agonist activity at His6-tcs-human RORalpha LBD assessed as inhibition of biotinylated PGC1alpha (130 to 154 residues) peptide recruitment incubated for 1 hr by HTRF-FRET assay
T1 sequence (P35398 whole entry): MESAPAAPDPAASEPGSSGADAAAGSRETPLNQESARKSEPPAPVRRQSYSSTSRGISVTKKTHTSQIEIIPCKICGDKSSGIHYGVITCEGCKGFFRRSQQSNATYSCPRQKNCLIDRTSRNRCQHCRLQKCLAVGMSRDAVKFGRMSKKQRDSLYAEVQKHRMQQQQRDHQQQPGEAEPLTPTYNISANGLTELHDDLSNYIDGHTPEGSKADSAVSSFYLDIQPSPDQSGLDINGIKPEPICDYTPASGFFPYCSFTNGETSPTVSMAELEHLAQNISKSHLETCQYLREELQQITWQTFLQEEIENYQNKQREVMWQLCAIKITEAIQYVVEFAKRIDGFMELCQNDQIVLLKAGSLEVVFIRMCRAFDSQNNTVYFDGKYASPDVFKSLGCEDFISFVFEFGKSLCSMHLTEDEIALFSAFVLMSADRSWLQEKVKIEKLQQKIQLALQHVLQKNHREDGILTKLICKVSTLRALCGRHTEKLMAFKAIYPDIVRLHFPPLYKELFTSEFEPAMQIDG

[2] = Clearance in Han Wistar rat at 0.5 mg/kg, iv or 1 mg/kg, po; format: ADME, organism-based; conditions: in vivo
physchem = conditions: aqueous buffer, pH 7.4
Description: Solubility in aqueous buffer at pH 7.4

[3] = Unbound fraction in human plasma by equilibrium dialysis; format: ADME, cell-free
hERG (KCNH2) = hERG (KCNH2) (Homo sapiens, UniProt Q12809); assay: Inhibition of human ERG at 11 uM
[4] = target: T2, Nuclear receptor ROR-gamma (Homo sapiens, UniProt P51449); assay: Inverse agonist activity at RORgammat in human TH17 cells assessed as inhibition of IL17 release incubated for 4 days by HTRF assay; format: cell-based
T2 sequence (P51449 whole entry): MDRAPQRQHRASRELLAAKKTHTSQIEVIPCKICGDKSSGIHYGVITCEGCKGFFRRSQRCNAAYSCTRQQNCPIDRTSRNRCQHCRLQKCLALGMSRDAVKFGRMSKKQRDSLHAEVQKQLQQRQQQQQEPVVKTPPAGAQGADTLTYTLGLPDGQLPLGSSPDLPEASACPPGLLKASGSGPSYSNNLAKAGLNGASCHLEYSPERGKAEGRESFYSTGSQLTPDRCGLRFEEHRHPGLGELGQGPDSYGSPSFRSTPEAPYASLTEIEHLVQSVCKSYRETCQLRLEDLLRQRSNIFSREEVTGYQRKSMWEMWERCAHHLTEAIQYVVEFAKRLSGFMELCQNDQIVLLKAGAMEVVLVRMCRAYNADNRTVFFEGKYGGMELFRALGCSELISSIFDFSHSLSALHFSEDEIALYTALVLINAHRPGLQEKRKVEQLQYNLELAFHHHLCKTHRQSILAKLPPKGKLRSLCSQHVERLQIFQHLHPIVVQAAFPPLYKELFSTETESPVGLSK

[5] = Half life in Han Wistar rat at 0.5 mg/kg, iv or 1 mg/kg, po; format: ADME, organism-based; conditions: in vivo
[6] = target: T2, Nuclear receptor ROR-gamma
Description: Displacement of [3H]-2-(4-(ethylsulfonyl)phenyl)-N-(4-(2-(methoxymethyl)phenyl)thiophen-2-yl)acetamide from purified N-(HN)6-GST-TCS-human RORgammat (258 to 518 residues) incubated for 16 hrs by scintillation proximity assay

[7] = Permeability from basolateral to apical side in human Caco2 cells; format: ADME, cell-based; conditions: for permeability: Caco-2
[8] = Volume of distribution at steady state in Han Wistar rat at 0.5 mg/kg, iv or 1 mg/kg, po; format: ADME, organism-based; conditions: in vivo, read-out: Vdss
[9] = Intrinsic clearance in rat hepatocytes assessed per million cells; format: ADME, cell-based, Hepatocyte; conditions: read-out: CLH
[10] = Oral absorption in Han Wistar rat at 1 mg/kg; format: ADME, organism-based; conditions: in vivo, read-out: Fabs
[11] = Efflux ratio of permeability in human Caco2 cells; format: ADME, cell-based; conditions: Caco-2
[12] = target: T1, Nuclear receptor ROR-alpha; assay: Agonist activity at His6-tcs-human RORalpha LBD assessed as stimulation of biotinylated PGC1alpha (130 to 154 residues) peptide recruitment incubated for 1 hr by HTRF-FRET assay; conditions: read-out: IC50 (the source's name)
[13] = Oral bioavailability in Han Wistar rat at 1 mg/kg; format: ADME, organism-based; conditions: in vivo
[14] = Intrinsic clearance in human hepatocytes assessed per million cells; format: ADME, cell-based, Hepatocyte; conditions: read-out: CLH
[15] = Permeability from apical to basolateral side in human Caco2 cells; format: ADME, cell-based; conditions: for permeability: Caco-2
[16] = Cytotoxicity in human Th17 cells assessed as effect on cell viability by cell-titer-Glo luminescent cell viability assay relative to control; format: cell-based; conditions: read-out: Efficacy
[17] = target: T2, Nuclear receptor ROR-gamma; remark: listed apart in the source
[18] = Selectivity index, ratio of cytotoxicity in human Th17 cells to IC50 for inverse agonist activity at RORgammat in human TH17 cells assessed as inhibition of IL17 release; format: toxicity, cell-based
[19] = target: T3, Nuclear receptor ROR-beta (Homo sapiens, UniProt Q92753); assay: Displacement of [3H]ATRA from 6H-AVI-GST-TEV-human RORbeta (T221 to K470 residues) pre-incubated for 30 mins before [3H]ATRA addition and measurted ater 18 to 23 hrs by scintillation proximity assay
T3 sequence (Q92753 whole entry): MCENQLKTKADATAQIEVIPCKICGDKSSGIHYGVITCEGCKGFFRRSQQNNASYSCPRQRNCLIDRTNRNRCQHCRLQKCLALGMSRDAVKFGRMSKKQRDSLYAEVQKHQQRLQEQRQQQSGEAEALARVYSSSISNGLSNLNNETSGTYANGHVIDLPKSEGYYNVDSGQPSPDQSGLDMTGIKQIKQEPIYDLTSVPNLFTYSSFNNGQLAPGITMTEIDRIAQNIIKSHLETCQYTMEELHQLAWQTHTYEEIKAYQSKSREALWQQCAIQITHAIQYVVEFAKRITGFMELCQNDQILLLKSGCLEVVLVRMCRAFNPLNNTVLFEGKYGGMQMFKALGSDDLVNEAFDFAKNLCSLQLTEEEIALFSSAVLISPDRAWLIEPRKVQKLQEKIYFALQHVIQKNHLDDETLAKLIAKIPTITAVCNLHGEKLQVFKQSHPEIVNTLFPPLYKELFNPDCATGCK

[20] = Distribution coefficient between 1-octanol and aqueous phosphate buffer, logD of the compound in pH 7.4 buffer; format: physicochemical; conditions: 1-octanol/aqueous phosphate buffer
[21] = Stability in pH 8 buffer solution at 37 degC measured over 2 days; format: physicochemical; conditions: pH 8, 48 h
[22] = Stability in pH 5 buffer solution at 37 degC measured over 2 days; format: physicochemical; conditions: pH 5, 48 h
[23] = Stability in pH 7.4 buffer solution at 37 degC measured over 2 days; format: physicochemical; conditions: pH 7.4, 48 h

Chain of hERG (KCNH2) (Q12809 whole entry): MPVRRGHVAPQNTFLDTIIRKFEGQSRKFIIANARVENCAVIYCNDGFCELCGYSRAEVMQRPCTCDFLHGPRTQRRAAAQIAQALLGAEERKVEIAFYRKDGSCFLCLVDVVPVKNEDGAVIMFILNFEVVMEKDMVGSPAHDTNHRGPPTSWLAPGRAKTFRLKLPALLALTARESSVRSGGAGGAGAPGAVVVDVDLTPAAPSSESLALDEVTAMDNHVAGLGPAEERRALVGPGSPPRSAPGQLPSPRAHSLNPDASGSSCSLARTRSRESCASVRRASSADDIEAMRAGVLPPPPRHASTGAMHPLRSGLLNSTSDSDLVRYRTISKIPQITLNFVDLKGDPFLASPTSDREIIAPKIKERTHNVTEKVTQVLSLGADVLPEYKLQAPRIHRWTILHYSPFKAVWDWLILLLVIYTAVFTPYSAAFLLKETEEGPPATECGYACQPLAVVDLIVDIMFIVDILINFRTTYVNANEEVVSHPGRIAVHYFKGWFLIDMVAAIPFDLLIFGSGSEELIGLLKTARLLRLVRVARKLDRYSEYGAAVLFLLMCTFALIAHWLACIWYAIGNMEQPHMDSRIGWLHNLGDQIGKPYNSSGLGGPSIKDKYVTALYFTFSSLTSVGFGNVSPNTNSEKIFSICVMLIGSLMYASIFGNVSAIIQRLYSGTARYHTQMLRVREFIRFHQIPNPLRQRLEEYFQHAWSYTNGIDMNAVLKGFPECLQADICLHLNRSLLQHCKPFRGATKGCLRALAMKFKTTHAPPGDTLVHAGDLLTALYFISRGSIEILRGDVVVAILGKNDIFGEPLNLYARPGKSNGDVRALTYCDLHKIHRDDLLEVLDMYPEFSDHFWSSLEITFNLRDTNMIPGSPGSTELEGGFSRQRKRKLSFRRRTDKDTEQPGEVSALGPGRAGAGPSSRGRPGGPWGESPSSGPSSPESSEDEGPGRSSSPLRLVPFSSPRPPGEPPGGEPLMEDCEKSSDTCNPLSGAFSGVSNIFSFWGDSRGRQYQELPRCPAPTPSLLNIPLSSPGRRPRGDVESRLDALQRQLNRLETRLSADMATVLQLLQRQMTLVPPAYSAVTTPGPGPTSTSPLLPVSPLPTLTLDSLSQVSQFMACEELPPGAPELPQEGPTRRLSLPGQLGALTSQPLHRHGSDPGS

SMILES	IC50 [1] [nM]	clearance [2] [mL/min/kg]	solubility (physchem) [µM]	fraction unbound [3]	inhibition at 11 µM (hERG (KCNH2)) [%]	IC50 [4] [nM]	half-life [5] [h]	IC50 [6] [nM]	permeability [7]	Vd [8] [L/kg]	hepatocyte CLint [9] [µL/min/1e6 cells]	Fa [10] [%]	Ratio [11]	EC50 [12] [nM]	bioavailability [13] [%]	hepatocyte CLint [14] [µL/min/1e6 cells]	permeability [15]	IC50 [17] [nM]	IC50 [19] [nM]	logD [20]	further results
CCS(=O)(=O)c1ccc(CNC(=O)c2cnc3c(c2)CN(C[C@H]2CC[C@H](C(F)(F)F)CC2)[C@H]3C(C)C)nc1																					Activity (Homo sapiens): 24%
CCS(=O)(=O)c1ccc(CC(=O)Nc2cc(-c3cccnc3Oc3ccc(OC(F)(F)F)cc3)cs2)cc1	> 33000	24	2.5 (≈ 1.41 µg/mL)	< 0.001	14	144	1.6	33	Impermeable	2.8	20	67	Impermeable	> 33000	45	11.9	Impermeable				
CCS(=O)(=O)c1ccc(CC(=O)Nc2cc(-c3cccnc3OCc3ccc(OC(F)(F)F)cc3)cs2)cc1	> 33000	46.5	0.7 (≈ 0.404 µg/mL)	< 0.0002	0	25	1.4	7	Impermeable	3.8	40	30	Impermeable	> 33000	10	8.6	Impermeable	30	> 10000		Emax [16]: 40%; selectivity ratio [18]: 100
CCS(=O)(=O)c1ccc(C(NC(C)=O)C(=O)Nc2cc(-c3cc(C#N)cnc3OCC(F)(F)F)cs2)cc1 (centres undefined)	600		3.6 (≈ 2.04 µg/mL)	0.002	3	49		7			< 1			> 33000				72	> 10000	3.7	
CCS(=O)(=O)c1ccc([C@@H](NC(C)=O)C(=O)Nc2cc(-c3cccnc3OCc3ccc(OC(F)(F)F)cc3)cs2)cc1	9400	12	0.3 (≈ 0.19 µg/mL)	0.001	8	11	4.3	3		2.4	8.9 to 12	< 1.2		> 33000	< 1	8.5		34	> 10000	4.7	Stability [21]: Stable; Stability [22]: Stable; Papp B→A ([7]; Caco-2, read-out: permeability): 42 ×10⁻⁶ cm/s; Stability [23]: Stable; efflux ratio [11]: > 1500; Papp A→B ([15]; Caco-2, read-out: permeability): < 0.001 ×10⁻⁶ cm/s
CCS(=O)(=O)c1ccc([C@H](NC(C)=O)C(=O)Nc2cc(-c3cccnc3OCc3ccc(OC(F)(F)F)cc3)cs2)cc1						23		270			18							3530		4.7	Stability [21]: Stable; Stability [22]: Stable; Stability [23]: Stable
CCS(=O)(=O)c1ccc(CC(=O)Nc2cc(-c3cc(C#N)cnc3OCC(F)(F)F)cs2)cc1	6200	0.8	0.2 (≈ 0.102 µg/mL)	0.0006	47	65	4.4	2	Impermeable	0.23	7.5	36	Impermeable	> 33000	36	5.9	Impermeable	30			
